Laboratory results published in patent US20230277533A1, “THERAPEUTIC COMBINATIONS COMPRISING UBIQUITIN-SPECIFIC-PROCESSING PROTEASE 1 (USP1) INHIBITORS AND POLY (ADP-RIBOSE) POLYMERASE (PARP) INHIBITORS” (KSQ Therapeutics, Inc., priority 2020, published 2023).
Like-named read-outs stand apart in the source and are kept apart here.

Columns and labels:
Assay in all cases: Colony formation (CFU) assay
Format in all cases: cell-based
COV362 = test system: COV362
Protocol: (§1) In vitro experiments were conducted using the colony formation unit (CFU) assay on various cell lines. The CFU assay involved first establishing what cell plating density enabled the development of clearly interspersed colonies on a six-well plate when left to grow for around 14 days. […] Media was changed on day 8 containing appropriate concentrations of DMSO, USP1 inhibitor, Niraparib, or Olaparib. At or around day 14 when clearly interspersed colonies were visible in the DMSO treated wells, the cells were fixed and stained using 0.1% crystal violet in 10% ethanol for 20 minutes at room temperature. The plates were imaged then the amount of crystal violet stain in each well was quantified by extracting the crystal violet into 10% acetic acid and the absorbance measured at 565 nm.
(§2) IC50 values were calculated by fitting a two-parameter hill equation to the dose-response measurements. Non-linear-least-squares was used to find parameter values that minimize the squared error of the model fit to measured dose response. Non-linear-least-squares estimation was performed using the minpack.lm R package, version 1.2-1. Bliss synergy scores were calculated using the synergyfinder R package version 1.6.1.

CW2 = details: Homo sapiens, CW-2, CW2, colon
Protocol: as §1, §2

HCC1806 = details: Homo sapiens, HCC1806, breast
Protocol: as §1, §2

HCT116 = details: Homo sapiens, HCT-116, HCT116, colon
Protocol: as §1, §2

HPAC = details: Homo sapiens
Protocol: as §1, §2

MDAMB436 = details: Homo sapiens, MDA-MB-436, MDAMB436, breast
Protocol: as §1, §2

MSTO211H = details: Homo sapiens, MSTO-211H
Protocol: as §1, §2

NCIH520 = details: Homo sapiens, NCI-H520, NCIH520, lung
Protocol: as §1, §2

TE11 = details: Homo sapiens, TE-11, TE11, esophagus
Protocol: as §1, §2

UWB1289BRCA1 = details: UWB1289BRCA1, ovary
Protocol: as §1, §2

647V = details: Homo sapiens, bladder
Protocol: as §1, §2

CAPAN2 = details: Homo sapiens, Capan-2; CAPAN2, pancreas
Protocol: as §1, §2

CHAGOK1 = details: Homo sapiens, ChaGo-K-1; CHAGOK1, lung
Protocol: as §1, §2

G292CLONEA141B1 = details: G292CLONEA141B1, bone
Protocol: as §1, §2

GSU = details: stomach
Protocol: as §1, §2

HBCx17 = details: HBCx17, breast
Protocol: as §1, §2

HBCx8 = details: HBCx8, breast
Protocol: as §1, §2

HCC1438 = details: HCC1438, lung
Protocol: as §1, §2

HSC2 = details: Homo sapiens, HSC-2; HSC2, head and neck
Protocol: as §1, §2

HUO9 = details: HUO9, bone
Protocol: as §1, §2

KS1 = details: KS1, nervous system
Protocol: as §1, §2

KURAMOCHI = details: ovary
Protocol: as §1, §2

LUDLU1 = details: LUDLU-1; LUDLU1, lung
Protocol: as §1, §2

MDAMB231 = details: Homo sapiens, MDA-MB-231; MDAMB231, breast
Protocol: as §1, §2

OVMANA = details: ovary
Protocol: as §1, §2

PK8 = details: PK8, pancreas
Protocol: as §1, §2

SKOV3 = details: Homo sapiens, SK-OV-3; SKOV3, ovary
Protocol: as §1, §2

SNU8 = details: SNU8, ovary
Protocol: as §1, §2

SW948 = details: Homo sapiens; SW948, colon
Protocol: as §1, §2

TE5 = details: Homo sapiens, TE-5; TE5, esophagus
Protocol: as §1, §2

GB1 = details: Homo sapiens, GB-1; GB1, nervous system
Protocol: In vitro experiments were conducted using the colony formation unit (CFU) assay on various cell lines. The CFU assay involved first establishing what cell plating density enabled the development of clearly interspersed colonies on a six-well plate when left to grow for around 14 days. Once this density had been identified, cells were plated on day −1 and on day 0, the wells were treated with DMSO or increasing concentrations of USP1 inhibitor or Niraparib (3 nM, 10 nM, 30 nM, 100 nM, and 300 nM), or increasing concentrations of USP1 inhibitor or Olaparib (3 nM, 10 nM, 30 nM, 100 nM, and 300 nM). Media was changed on day 8 containing appropriate concentrations of DMSO, USP1 inhibitor, Niraparib, or Olaparib. […] The plates were imaged then the amount of crystal violet stain in each well was quantified by extracting the crystal violet into 10% acetic acid and the absorbance measured at 565 nm.
IC50 values were calculated by fitting a two-parameter hill equation to the dose-response measurements. Non-linear-least-squares was used to find parameter values that minimize the squared error of the model fit to measured dose response. […] Bliss synergy scores were calculated using the synergyfinder R package version 1.6.1.

Row | SMILES | IC50 (647V) [nM] | IC50 (CAPAN2) [nM] | IC50 (CHAGOK1) [nM] | activity as single agents (COV362; COV362) | IC50 (CW2) [nM] | IC50 (G292CLONEA141B1) [nM] | IC50 (GSU) [nM] | IC50 (HBCx17) [nM] | IC50 (HBCx8) [nM] | IC50 (HCC1438) [nM] | IC50 (HCC1806) [nM] | IC50 (HCT116) [nM] | IC50 (HPAC; pancreas) [nM] | IC50 (HSC2) [nM] | IC50 (HUO9) [nM] | IC50 (KS1) [nM] | IC50 (KURAMOCHI) [nM] | IC50 (LUDLU1) [nM] | IC50 (MDAMB231) [nM] | IC50 (MDAMB436) [nM] | further results
1 | COc1ncnc(C2CC2)c1-c1ncc2cnn(Cc3ccc(-c4nc(C(F)(F)F)cn4C(C)C)cc3)c2n1 [Formula I, 6-(4-cyclopropyl-6-methoxypyrimidin-5-yl)-1-(4-(1-isopropyl-4-(trifluoromethyl)-1H-imidazol-2-yl)benzyl)-1H-pyrazolo[3,4-d]pyrimidine] |  |  |  |  |  |  |  |  |  |  |  |  |  |  |  |  |  |  |  |  | IC50 (COV362; Table 2, COV362, ovary, read-out: IC50): 203 nM; IC50 (CW2; Table 2): 67 nM; IC50 (HCC1806; Table 2): 62 nM; IC50 (HCT116; Table 2): > 316 nM; IC50 (HPAC; Table 2, pancreas): > 316 nM; IC50 (MDAMB436; Table 2): 4.5 nM; IC50 (MSTO211H; Table 2, lung): > 316 nM; IC50 (NCIH520; Table 2): > 316 nM; IC50 (TE11; Table 2): > 316 nM; IC50 (UWB1289BRCA1; Table 2): 113 nM
2 | COc1ncnc(C2CC2)c1-c1ncc2cnn(Cc3ccc(-c4nc(C(F)(F)F)cn4C)cc3)c2n1 [Formula II, 6-(4-cyclopropyl-6-methoxypyrimidin-5-yl)-1-(4-(1-methyl-4-(trifluoromethyl)-1H-imidazol-2-yl)benzyl)-1H-pyrazolo[3,4-d]pyrimidine] | 33.9 | > 300 | > 300 | modest activity | > 300 | > 300 | > 300 | > 300 | > 300 | > 300 | 114 | 110 | > 300 | > 300 | > 300 | > 300 | > 300 | > 300 | > 300 | 6.46 | IC50 (COV362; COV362): > 300 nM; IC50 (MSTO211H; lung): > 300 nM; IC50 (NCIH520): > 300 nM; IC50 (OVMANA): > 300 nM; IC50 (PK8): > 300 nM; IC50 (SKOV3): > 300 nM; IC50 (SNU8): > 300 nM; IC50 (SW948): > 300 nM; IC50 (TE11): 134 nM; IC50 (TE5): > 300 nM; IC50 (UWB1289BRCA1): 139 nM; IC50 (GB1): > 300 nM
3 | NC(=O)c1cccc2cn(-c3ccc([C@@H]4CCCNC4)cc3)nc12 [Niraparib, niraparib, reference compound] | 96.7 | > 300 | > 300 | modest activity | > 300 | > 300 | > 300 | 13.8 | 107 | 42.5 | 62.9 | > 300 | > 300 | > 300 | > 300 | > 300 | > 300 | > 300 | > 300 | 4.73 | IC50 (COV362; COV362, ovary, read-out: IC50): 177 nM; IC50 (MSTO211H; lung): > 300 nM; IC50 (NCIH520): > 300 nM; IC50 (OVMANA): > 300 nM; IC50 (PK8): > 300 nM; IC50 (SKOV3): > 300 nM; IC50 (SNU8): > 300 nM; IC50 (SW948): > 300 nM; IC50 (TE11): 176 nM; IC50 (TE5): > 300 nM; IC50 (UWB1289BRCA1): 186 nM; IC50 (GB1): > 300 nM
